# Measured values from patent US11660313B2, “Compositions and methods for application over skin” (Shiseido Company, Limited, priority 2015, dated 2023).
# Test: Solubility of triamcinolone acetonide in receptor fluid
# Format: physicochemical
# Conditions: not told, aqueous with cosolvent or surfactant or cyclodextrin; PBS at pH 7.4 with 2 wt % hydroxypropyl-beta-cyclodextrin
# Protocol: Receptor fluid preparation: Based on the results of solubility studies, a receptor fluid of phosphate buffered saline (PBS) at pH 7.4 with 2 wt % hydroxypropyl-beta-cyclodextrin (HPBCD) was chosen. […] The preparation and degassing of the receptor fluid was prepared at an appropriate pH and degassing was carried out by filtering the receptor fluid through a ZapCap CR 0.2 μm membrane while pulling vacuum.
smiles,measurement,value
CC1(C)O[C@@H]2C[C@H]3[C@@H]4CCC5=CC(=O)C=C[C@]5(C)[C@@]4(F)[C@@H](O)C[C@]3(C)[C@]2(C(=O)CO)O1 [triamcinolone acetonide],solubility,~282 µg/mL
